Test system: 786-0 complex spheroids with HUVEC/MSC, growth % test/control
Test: Anticancer human tumor 786-0 cell line growth inhibition [AhR];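 also: compound exposure lasted seven days before the read-out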
Conditions: for IC50: curve of first compound; for viability, T/C: stronger effect = lower value
Excerpt: Multicellular complex tumor spheroid response to aryl hydrocarbon receptor antagonists in combination with a variety of drugs and investigational agents in selected tumor cell lines
The current study was undertaken to assess response to aryl hydrocarbon receptor antagonists in combination with standard-of-care drugs and investigational agents in solid tumor complex spheroid models. Complex spheroids include a stromal component modeled by human endothelial cells (HUVEC) and fibroblasts modeled by human mesenchymal stem cells (MSCs). The concentration ranges selected for each drug and investigational agent were based upon clinically achievable concentrations if the clinical Cmax of the agent was known.
Compounds. The drugs and investigational agents: BAY 2416964 (NSC825713), GNF351 (NSC835774), CH-223191 (NSC835775), CPI-455 (NSC825282), aza-TdCyd (NSC777586), decitabine (NSC127716), belinostat (NSC758774), entinostat (NSC756642), pevonedistat (NSC761192), tazemetostat (NSC777109), talazoparib (NSC765396), olaparib (NSC753686), selinexor (NSC780203), nedisertib (M3814, NSC802822), bortezomib (NSC756655), venetoclax (NSC766270), doxorubicin (NSC123127), elimusertib (BAY189344, NSC800525), ceralasertib (AZD6738, NSC777638), TAK-243 (NSC785004), alisertib (NSC759677), etoposide (NSC141540), topotecan (NSC609699), eribulin (NSC707389), gemcitabine (NSC613327), carboplatin (NSC241240), cisplatin (NSC119875), and SN-38 (NSC673596) were obtained from the National Cancer Institute (NCI) Developmental Therapeutics Program Chemical Repository (32). The FDA-approved anticancer drug set is available from the Developmental Therapeutics Program at https://dtp.cancer.gov/organization/dscb/obtaining/available plates.htm. […] The stock solutions were prepared in dimethyl sulfoxide (DMSO, Sigma-Aldrich, St. Louis, MO, cat. D2650), except for the platinum compounds which were prepared in saline (Quality Biological, Gaithersburg, MD, cat. 114-055-101), at 800-fold the tested concentration and stored at -70 degrees C prior to their use. All drugs and investigational agents were tested over a range starting from a high concentration at or near the clinical Cmax and decreasing in half-log increments. If the clinical Cmax for an agent had not been determined, the highest concentration tested was 10 microM (Table 1).
Cell Culture. All cells were maintained in an incubator at 37 degrees C and 5% CO2 with 95% humidity. The PDC lines were cultured according to standard operating procedures established by the NCI PDMR (https://pdmr.cancer.gov). Briefly, all PDCs were thawed and cultured in Matrigel-coated flasks prepared with a working solution of 1X Ham's F-12 nutrient mix, without supplementation (Invitrogen, Waltham, MA, cat. 11765054), 100 U/mL penicillin-streptomycin (Invitrogen, cat. 15140122), and 2.5% Matrigel (Corning Inc., Corning, NY, cat. 354248) for the first three passages. All PDCs were cultured in complete DMEM/F-12 media containing advanced DMEM/F-12 (Invitrogen, cat. 12634028), 4.9% defined fetal bovine serum, heat inactivated (HyClone Laboratories Inc., Logan, UT, cat. SH30070.03HI), 389 ng/mL hydrocortisone (Sigma-Aldrich, cat. H4001), 9.7 ng/mL human EGF recombinant protein (Invitrogen, cat. PHG0313), 23.4 microg/mL adenine (Sigma-Aldrich, cat. A2786), 97.3 U/mL penicillin-streptomycin (Invitrogen, cat. 15140122), 1.9 mM L-glutamine (Invitrogen, cat. 25030081), and 9.7 microM Y-27632 dihydrochloride (Tocris Bioscience, Bristol, United Kingdom, cat. 1254). The PDCs were cultured in complete DMEM/F12 media without 10 microM Y-27632 dihydrochloride for at least two passages prior to the screen. The established cell lines NCI-H1341 and […] were cultured in DMEM/F-12, HEPES (Invitrogen, cat. 11330032), 5% defined fetal bovine serum (HyClone Laboratories Inc., cat. SH30070.03), ITS premix universal culture supplement [insulin (5 microg/mL), transferrin (5 microg/mL), and selenious acid (5 ng/mL)] […]

[1] = second compound 0.1 µM, first compound 0.0316 µM
[2] = second compound 0.1 µM, first compound 0.1 µM
[3] = second compound 0.1 µM, first compound 0.316 µM
[4] = second compound 0.1 µM, first compound 1 µM
[5] = second compound 0.1 µM, first compound 3.16 µM
[6] = second compound 0.1 µM, first compound 10 µM
[7] = second compound 0.316 µM, first compound 0.0316 µM
[8] = second compound 0.316 µM, first compound 0.1 µM
[9] = second compound 0.316 µM, first compound 0.316 µM
[10] = second compound 0.316 µM, first compound 1 µM
[11] = second compound 0.316 µM, first compound 3.16 µM
[12] = second compound 0.316 µM, first compound 10 µM
[13] = second compound 1 µM, first compound 0.0316 µM
[14] = second compound 1 µM, first compound 0.1 µM
[15] = second compound 1 µM, first compound 0.316 µM
[16] = second compound 1 µM, first compound 1 µM
[17] = second compound 1 µM, first compound 3.16 µM
[18] = second compound 1 µM, first compound 10 µM
[19] = second compound 3.16 µM, first compound 0.0316 µM
[20] = second compound 3.16 µM, first compound 0.1 µM
[21] = second compound 3.16 µM, first compound 0.316 µM
[22] = second compound 3.16 µM, first compound 1 µM
[23] = second compound 3.16 µM, first compound 3.16 µM
[24] = second compound 3.16 µM, first compound 10 µM
[25] = second compound 10 µM, first compound 0.0316 µM
[26] = second compound 10 µM, first compound 0.1 µM
[27] = second compound 10 µM, first compound 0.316 µM
[28] = second compound 10 µM, first compound 1 µM
[29] = second compound 10 µM, first compound 3.16 µM
[30] = second compound 10 µM, first compound 10 µM

SMILES	IC50 (second compound 0.1 µM)	IC50 (second compound 0.316 µM)	IC50 (second compound 1 µM)	IC50 (second compound 3.16 µM)	IC50 (second compound 10 µM)	viability, T/C [1]	viability, T/C [2]	viability, T/C [3]	viability, T/C [4]	viability, T/C [5]	viability, T/C [6]	viability, T/C [7]	viability, T/C [8]	viability, T/C [9]	viability, T/C [10]	viability, T/C [11]	viability, T/C [12]	viability, T/C [13]	viability, T/C [14]	viability, T/C [15]	other results
Nc1ccccc1NC(=O)c1ccc(CNC(=O)OCc2cccnc2)cc1 + CC(CO)NC(=O)c1cc(-c2ccc(Cl)cc2)nn(-c2cnn(C)c2)c1=O	5.28 µM	5.23 µM	4.78 µM	4.6 µM	4.08 µM	107%	104%	110%	104%	73.8%	20.3%	114%	99.3%	113%	101%	76.7%	15.9%	101%	112%	98.1%	viability, T/C [16]: 104%; viability, T/C [17]: 68.5%; viability, T/C [18]: 16.9%; viability, T/C [19]: 111%; viability, T/C [20]: 110%; viability, T/C [21]: 110%; viability, T/C [22]: 92%; viability, T/C [23]: 65.7%; viability, T/C [24]: 18.8%; viability, T/C [25]: 113%; viability, T/C [26]: 114%; viability, T/C [27]: 102%; viability, T/C [28]: 96.4%; viability, T/C [29]: 58%; viability, T/C [30]: 18.8%
O=C(c1cc(Cc2n[nH]c(=O)c3ccccc23)ccc1F)N1CCN(C(=O)C2CC2)CC1 + CC(CO)NC(=O)c1cc(-c2ccc(Cl)cc2)nn(-c2cnn(C)c2)c1=O	> 10 µM	> 10 µM	> 10 µM	> 10 µM	> 10 µM	96.1%	101%	98.8%	102%	102%	91.5%	100%	102%	97.9%	101%	98.8%	98.9%	98.7%	102%	99.9%	viability, T/C [16]: 103%; viability, T/C [17]: 101%; viability, T/C [18]: 99%; viability, T/C [19]: 97.3%; viability, T/C [20]: 109%; viability, T/C [21]: 95.3%; viability, T/C [22]: 104%; viability, T/C [23]: 99.8%; viability, T/C [24]: 89.9%; viability, T/C [25]: 113%; viability, T/C [26]: 107%; viability, T/C [27]: 108%; viability, T/C [28]: 114%; viability, T/C [29]: 107%; viability, T/C [30]: 90.9%

From PubChem BioAssay AID1919003 (Molecular Pharmacology Branch, DTP, NCI, 2023)
